# Assay results published in paper PMC12529881, “Quantitative analysis of inhibitor‐induced assembly disruption in human UDP‐GlcNAc 2‐epimerase using mass photometry” (Protein Science : A Publication of the Protein Society, 2025).
# Read-outs that look alike come from different tables or passages of the source.
# T1: human UDP‐GlcNAc 2‐epimerase (GNE) (Homo sapiens, UniProt Q9Y223)
# T1 construct: The MNK subunit connects to the C‐terminus of the GNE subunit; made in house; host or cells: Escherichia coli BL21 (DE3)
# T1 sequence (Q9Y223 1-405 limits assumed): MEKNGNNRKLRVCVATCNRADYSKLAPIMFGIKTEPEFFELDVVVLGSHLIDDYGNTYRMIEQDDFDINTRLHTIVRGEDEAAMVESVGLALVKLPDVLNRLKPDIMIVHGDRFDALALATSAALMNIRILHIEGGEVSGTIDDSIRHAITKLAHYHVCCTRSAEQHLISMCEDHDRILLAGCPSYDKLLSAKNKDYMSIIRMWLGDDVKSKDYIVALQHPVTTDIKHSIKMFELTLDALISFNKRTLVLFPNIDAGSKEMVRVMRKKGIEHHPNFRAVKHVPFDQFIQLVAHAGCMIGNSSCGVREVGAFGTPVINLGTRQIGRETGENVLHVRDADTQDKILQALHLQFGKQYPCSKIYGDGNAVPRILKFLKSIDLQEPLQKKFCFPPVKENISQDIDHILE
# How the values were obtained:
# [1] = target: T1, human UDP‐GlcNAc 2‐epimerase (GNE); experiment: Mass photometry GNE assembly inhibition (inhibitor titration against 800 nM GNE); type: biochemical; conditions: for IC50 / effect on dimeric assembly: 800 nM GNE; for effect on dimeric assembly: absence of UDP‐GlcNAc; for Ki: from IC50 ^S (T) by modified Cheng–Prusoff equation (Equation S4), read-out: K i ^S (T)
# Protocol: All MP measurements were conducted using a OneMP (Refeyn) instrument equipped with a 525 nm green laser. To minimize background noise, the instrument was placed on an active vibration isolation system (Accurion i4 Series, Park Systems). High‐precision glass coverslips (Paul Marienfeld GmbH & Co. KG, Cat# 0107222) were thoroughly cleaned before use to ensure optimal measurement conditions. Prior to MP measurements, samples were incubated in phosphate buffer (DPBS[−|−], Gibco, Cat# 14190144) and low‐binding tubes for 30 min in a ThermoMixer C (Eppendorf, Cat# 5382000015) at 20°C to allow binding equilibrium to be reached. Immediately before measurement, a 50 nM working solution was prepared. Then, 5 μL of the working solution was added to a 15 μL DPBS (−|−) droplet on the glass coverslip, followed by mixing upon pipetting to ensure proper distribution before measurements began immediately. […] For the measurements, a regular field of view was used. Data acquisition was performed over a 60‐s detection period with manual focus adjustment. Data were recorded using the software AquireMP (2024 R2, Refeyn) and referenced against a glycinin mass standard in DPBS (−|−). The glycinin standard, derived from defatted soybean flour, forms characteristic trimers (160 kDa), hexamers (320 kDa), nonamers (480 kDa), and dodecamers (640 kDa). Purified and lyophilized glycinin was kindly provided by the group of Dr. Rumiana Dimova (Chen et al., [2020]; Mangiarotti et al., [2025]). Data analysis and graphical visualization were performed using DiscoverMP (2024 R2, Refeyn) and GraphPad Prism 10 (10.1.1, Dotmatics). All experiments were conducted in at least three independent replicates, each performed as technical triplicates.
# Twofold serial dilutions of the inhibitors (500–7.81 μM) were titrated against a constant GNE concentration (800 nM), either in the presence or absence of UDP‐GlcNAc (100 μM). The GNE and substrate concentrations were selected based on titration experiments ensuring binding saturation and the establishment of an assembly equilibrium. Prior to measurements, samples were incubated for 30 min at 20°C to allow equilibrium to be reached. IC50 values were determined from protein fraction vs. inhibitor concentration plots and fitted using a Hill‐based logistic function (Equation S3). Subsequently, K i values for GNE inhibitors were derived from a Cheng–Prusoff equation accounting for allostery (Equation S4), detailed in Supporting Information S1.
# [2] = target: T1, human UDP‐GlcNAc 2‐epimerase (GNE); experiment: Mass photometry Schild experiments and OMAM global fit (GNE tetramer inhibition by C15); type: binding
# Protocol: (§1) All MP measurements were conducted using a OneMP (Refeyn) instrument equipped with a 525 nm green laser. To minimize background noise, the instrument was placed on an active vibration isolation system (Accurion i4 Series, Park Systems). High‐precision glass coverslips (Paul Marienfeld GmbH & Co. KG, Cat# 0107222) were thoroughly cleaned before use to ensure optimal measurement conditions. Prior to MP measurements, samples were incubated in phosphate buffer (DPBS[−|−], Gibco, Cat# 14190144) and low‐binding tubes for 30 min in a ThermoMixer C (Eppendorf, Cat# 5382000015) at 20°C to allow binding equilibrium to be reached. Immediately before measurement, a 50 nM working solution was prepared. Then, 5 μL of the working solution was added to a 15 μL DPBS (−|−) droplet on the glass coverslip, followed by mixing upon pipetting to ensure proper distribution before measurements began immediately. This approach provided high reproducibility in our results. For the measurements, a regular field of view was used. Data acquisition was performed over a 60‐s detection period with manual focus adjustment. Data were recorded using the software AquireMP (2024 R2, Refeyn) and referenced against a glycinin mass standard in DPBS (−|−). The glycinin standard, derived from defatted soybean flour, forms characteristic trimers (160 kDa), hexamers (320 kDa), nonamers (480 kDa), and dodecamers (640 kDa). Purified and lyophilized glycinin was kindly provided by the group of Dr. Rumiana Dimova (Chen et al., [2020]; Mangiarotti et al., [2025]). Data analysis and graphical visualization were performed using DiscoverMP (2024 R2, Refeyn) and GraphPad Prism 10 (10.1.1, Dotmatics). All experiments were conducted in at least three independent replicates, each performed as technical triplicates.
# To assess the binding affinity of inhibitors to GNE, modified Schild experiments were performed using MP. Serial dilutions of UDP‐GlcNAc (800 μM to 100 nM) were titrated against a constant GNE concentration (800 nM) in the presence of varying concentrations of inhibitor C15 (200 μM to 2 nM). Enzyme and substrate concentrations were chosen based on prior titration experiments (Figure 2c,g) to ensure a stable oligomeric equilibrium. Inhibitor concentrations were selected around the IC50 to enable accurate response characterization. Samples were incubated for 30 min at 20°C to ensure equilibration before measurement. EC50 values were obtained from substrate titration curves (tetramer fraction vs. UDP‐GlcNAc concentration), fitted using a Hill‐based function (Equation S3). The resulting EC50 values in the presence of inhibitor (EC50,Inh) were converted into logarithmic concentration ratios (log(CR‐1)) and plotted against the corresponding logarithmic inhibitor concentrations to generate a Schild plot. Data points were then fitted using a linear Schild equation (Equation S5), as described in the Supporting Information S1. Further cooperative factors were obtained from fitting the substrate concentration‐dependent response curves globally with an OMAM model (Equation S6) (Jakubík et al., [2020]).
# GNE = tested on: GNE; set-up: method as in Chen et al., 2016; conditions: ref Chen et al., 2016; cited from earlier work
# [3] = target: T1, human UDP‐GlcNAc 2‐epimerase (GNE); experiment: Mass photometry affinity measurements of GNE subunits / substrate titration; type: binding
# Protocol: as §1
# To determine the intermolecular protein affinities of GNE subunits, their assembly distribution was assessed using MP experiments. In the absence of substrate, serial GNE dilutions (50 μM to 50 nM) were performed to evaluate GNE subunit interactions. In the presence of UDP‐GlcNAc, intermolecular affinity changes were assessed through two titration approaches: First, different concentrations of UDP‐GlcNAc (500–7.81 μM) were titrated against a fixed concentration of GNE (0.8 μM). Second, different concentrations of GNE (0.2–10 μM) were titrated against a fixed concentration of UDP‐GlcNAc (100 μM). KD values were obtained from binding curves (Figure S4), fitted using a Hill‐based logistic model (Equation S1) (Fineberg et al., [2020]). The following dissociation constants were determined: K D ^0 (M:M) and K D ^0 (D:D) in the absence of UDP‐GlcNAc, K D ^S (D:D) and K D ^S (M:M) in the presence of UDP‐GlcNAc.
# mass photometry [4] = target: the molecule itself; experiment: mass photometry
# mass photometry [5] = target: the molecule itself; experiment: mass photometry; remark: listed apart in the source
# [6] = 100 μM UDP‐GlcNAc, DPBS pH 7.4, 20°C, Hill n fixed 1.3, read-out: IC50 ^S (T), GNE tetramer destabilization
# [7] = absence of UDP-GlcNAc, read-out: IC50^0(D), GNE dimer inhibition
# [8] = presence of 100 µM UDP-GlcNAc, read-out: IC50^S(D), GNE dimer inhibition
# [9] = substrate titration against 800 nM GNE
molecule,measurement,setting,value
"O=c1nc(/C=C/c2cc([N+](=O)[O-])ccc2Cl)cc(C(F)(F)F)[nH]1 [C13, (E)‐4‐(2‐chloro‐5‐nitrostyryl)‐6‐(trifluoromethyl)pyrimidin‐2(1H)‐one]",IC50,[1]; [6],19.4 ± 4.2 µM
same,IC50,[1]; [7],> 1000 µM
same,IC50,[1]; [8],472 ± 42.5 µM
same,effect on dimeric assembly,[1],significantly disrupted the dimeric assembly
same,Ki,[1]; 100 μM UDP‐GlcNAc,0.508 ± 0.182 µM
"COc1c(Br)cc(Br)cc1/C=C/c1cc(C(F)(F)F)[nH]c(=O)n1 [C15, (E)‐4‐(3,5‐dibromo‐2‐methoxystyryl)‐6‐(trifluoromethyl)pyrimidin‐2(1H)‐one]",IC50,[1]; [6],3.1 ± 1.2 µM
same,IC50,[1]; [7],21 ± 2.6 µM
same,IC50,[1]; [8],173 ± 100 µM
same,tetramer inhibition at single concentration,"[1]; 31.25 μM C15, 800 nM GNE, 100 μM UDP‐GlcNAc",full tetramer inhibition
same,effect on dimeric assembly,[1],significantly disrupted the dimeric assembly
same,Ki,[1]; 100 μM UDP‐GlcNAc,0.0826 ± 0.0397 µM
same,"K B (OMAM) fold lower than K B,app (Schild)",[2],~ 28 fold
same,operational cooperativity factor β,[2]; OMAM fit,≈ 0
same,operational efficacy τ I (inhibitor),[2]; OMAM fit,0.02
same,binding cooperativity factor ɑ,"[2]; OMAM fit, between C15 and substrate binding",0.02
same,Kd,"[2]; OMAM global fit (Equation S6), read-out: inhibitor affinity K B",0.0252 µM
same,Schild slope m,"[2]; linear region 0.8–10 μM C15, Equation S5",1.1
same,Kd,"[2]; x‐intercept of linear Schild fit (linear region 0.8–10 μM C15), 800 nM GNE, read-out: apparent affinity K B,app",~0.7 µM
"CC(=O)N[C@H]1[C@@H](OP(=O)([O-])OP(=O)([O-])OC[C@H]2O[C@@H](n3ccc(=O)[nH]c3=O)[C@H](O)[C@@H]2O)O[C@H](CO)[C@@H](O)[C@@H]1O.[Na+].[Na+] [UDP‐GlcNAc, Uridine diphosphate N‐acetyglucosamine disodium salt]",K M of GNE,GNE,33.1 ± 4.2 µM
same,increase of dimer–dimer affinity by substrate binding,[3],98 fold
same,Kd,"[3]; from tetramer curve, substrate titration against 800 nM GNE, Equation S2, read-out: substrate affinity K S",34.6 ± 3 µM
same,Kd,"[3]; presence of 100 μM UDP‐GlcNAc, fit Equation S1, read-out: K D ^S (D:D), GNE dimer–dimer interaction",0.0981 ± 0.0091 µM
same,Kd,"[3]; presence of 100 μM UDP‐GlcNAc, fit Equation S1, read-out: K D ^S (M:M), GNE monomer–monomer interaction",0.0372 ± 0.0075 µM
same,Kd,"[3]; presence of 100 μM UDP‐GlcNAc, mean calculated by law of mass action, read-out: K D ^S Calc.(D:D)",0.221 ± 0.0272 µM
same,Kd,"[3]; presence of 100 μM UDP‐GlcNAc, mean calculated by law of mass action, read-out: K D ^S Calc.(M:M)",0.0653 ± 0.0124 µM
same,Hill coefficient n of tetramer fraction,[3]; [9],1.3
same,maximal response E max (maximal tetramer fraction),[3]; [9],68.3%
same,operational efficacy τ S (substrate),[2]; OMAM fit,17.6
"GNE (UDP-GlcNAc 2-epimerase), monomer UDP-GlcNAc 2-epimerase domain (protein) MEKNGNNRKLRVCVATCNRADYSKLAPIMFGIKTEPEFFELDVVVLGSHLIDDYGNTYRMIEQDDFDINTRLHTIVRGEDEAAMVESVGLALVKLPDVLNRLKPDIMIVHGDRFDALALATSAALMNIRILHIEGGEVSGTIDDSIRHAITKLAHYHVCCTRSAEQHLISMCEDHDRILLAGCPSYDKLLSAKNKDYMSIIRMWLGDDVKSKDYIVALQHPVTTDIKHSIKMFELTLDALISFNKRTLVLFPNIDAGSKEMVRVMRKKGIEHHPNFRAVKHVPFDQFIQLVAHAGCMIGNSSCGVREVGAFGTPVINLGTRQIGRETGENVLHVRDADTQDKILQALHLQFGKQYPCSKIYGDGNAVPRILKFLKSIDLQEPLQKKFCFPPVKENISQDIDHILE",Kd,mass photometry [4],0.0126 µM
"GNE (UDP-GlcNAc 2-epimerase), dimer UDP-GlcNAc 2-epimerase domain (protein) MEKNGNNRKLRVCVATCNRADYSKLAPIMFGIKTEPEFFELDVVVLGSHLIDDYGNTYRMIEQDDFDINTRLHTIVRGEDEAAMVESVGLALVKLPDVLNRLKPDIMIVHGDRFDALALATSAALMNIRILHIEGGEVSGTIDDSIRHAITKLAHYHVCCTRSAEQHLISMCEDHDRILLAGCPSYDKLLSAKNKDYMSIIRMWLGDDVKSKDYIVALQHPVTTDIKHSIKMFELTLDALISFNKRTLVLFPNIDAGSKEMVRVMRKKGIEHHPNFRAVKHVPFDQFIQLVAHAGCMIGNSSCGVREVGAFGTPVINLGTRQIGRETGENVLHVRDADTQDKILQALHLQFGKQYPCSKIYGDGNAVPRILKFLKSIDLQEPLQKKFCFPPVKENISQDIDHILE",Kd,mass photometry [5],9.6 µM
